Measurements taken from ChEMBL document CHEMBL1667729, “Malyngamide 2, an oxidized lipopeptide with nitric oxide inhibiting activity from a Papua New Guinea marine cyanobacterium” (J Nat Prod, 2011).
Calls of active or inactive are those of the source. No cut-off for these calls is given here. Numbered stars: 1 amine (or outer) side, 2 acyl side, 3 side chain; on linkers, the order of the positions; unused ones are H or OH. Square brackets hold non-standard residues; d marks the D form. Peptide text beside a SMILES is read from it. PheOxz = O=C(c1coc([C@H](Cc2ccccc2)N[*:1])n1)[*:2]; X2 = CC[C@H](C)[C@H](N[*:1])c1nc(C(=O)[*:2])co1; X1 = Cc1oc([C@@H](N[*:1])C(C)C)nc1C(=O)[*:2]

Columns and labels:
RAW264.7 [1] = experiment: Cytotoxicity against mouse RAW264.7 cells at 21 uM; type: functional; conditions: read-out: Survival
NCI-H460 = experiment: Cytotoxicity against human H460 cells; type: functional, cell-based
RAW264.7 [2] = experiment: Anti-inflammatory activity against mouse RAW264.7 cells assessed as inhibition of LPS-induced NO production after 24 hrs; type: functional, cell-based; conditions: RAW264.7, 24 h
Neuro2a = experiment: Inhibition of voltage-gated sodium channel in mouse Neuro2a cells at 17.5 uM

Structure (SMILES) | viability at 21 µM (RAW264.7 [1]) [%] | IC50 (NCI-H460) [µM] | IC50 (RAW264.7 [2]) [µM] | inhibition (Neuro2a)
CCCCCCC[C@@H](C/C=C/CCC(=O)NC/C(=C/Cl)[C@@H]1C(=O)[C@H](O)C[C@@H](O)[C@]1(C)O)OC [MALYNGAMIDE] | 94 | 27.3 | 8 | 
CC[C@H](C)[C@@H]1NC(=O)[C@@H]2CCCN2C(=O)[C@H](Cc2ccccc2)NC(=O)c2coc(n2)[C@H](Cc2ccccc2)NC(=O)c2nc(oc2C)[C@H](C(C)C)NC(=O)CNC(=O)[C@@H]2CCCN2C(=O)[C@@H]2CCCN2C(=O)[C@H](C)NC(=O)c2coc1n2 [WEWAKAZOLE] (cyclo(APPG[X1][PheOxz]FP[X2])) |  | 10.1 |  | inactive
